In the NIST ThermoML archive (doi:10.1021/je900387e):

Assay: xn = mol fraction of the nth substance listed
Conditions: Liquid, Pycnometric method

CCCCBr [1-bromobutane] + O=C=O
mass density [kg/m3]
Conditions | 313.1 K | 316.1 K
7910 kPa, x1 = 0.0461 | 769 | –
7950 kPa, x1 = 0.0683 | 826 | –
7990 kPa, x1 = 0.0245 | 619 | –
8000 kPa, x1 = 0.0245 | 621 | –
8010 kPa, x1 = 0.0461 | 775 | –
8030 kPa, x1 = 0.0245 | 628 | –
8060 kPa, x1 = 0.0683 | 829 | –
8070 kPa, x1 = 0.0245 | 635 | –
8090 kPa, x1 = 0.1495 | 1001 | –
8100 kPa, x1 = 0.0245 | 641 | –
8100 kPa, x1 = 0.0461 | 780 | –
8140 kPa, x1 = 0.0245 | 649 | –
8170 kPa, x1 = 0.0683 | 832 | –
8170 kPa, x1 = 0.0989 | 893 | –
8190 kPa, x1 = 0.0245 | 656 | –
8240 kPa, x1 = 0.0245 | 663 | –
8240 kPa, x1 = 0.0461 | 786 | –
8270 kPa, x1 = 0.0245 | – | 528
8280 kPa, x1 = 0.0245 | – | 532
8290 kPa, x1 = 0.0683 | 835 | –
8300 kPa, x1 = 0.0245 | 671 | 537
8320 kPa, x1 = 0.0245 | – | 543
8340 kPa, x1 = 0.0245 | – | 549
8360 kPa, x1 = 0.0245 | 679 | 556
8360 kPa, x1 = 0.0461 | 791 | –
8380 kPa, x1 = 0.0245 | – | 562
8390 kPa, x1 = 0.0683 | 838 | –
8410 kPa, x1 = 0.0245 | – | 572
8430 kPa, x1 = 0.0245 | 687 | –
8460 kPa, x1 = 0.0245 | – | 582
8460 kPa, x1 = 0.1495 | 1004 | –
8500 kPa, x1 = 0.0461 | 797 | –
8530 kPa, x1 = 0.0245 | 695 | –
8540 kPa, x1 = 0.0683 | 842 | –
8560 kPa, x1 = 0.0989 | 900 | –
8620 kPa, x1 = 0.0245 | 703 | –
8650 kPa, x1 = 0.0461 | 802 | –
8660 kPa, x1 = 0.0683 | 845 | –
8740 kPa, x1 = 0.0245 | 712 | –
8790 kPa, x1 = 0.0683 | 848 | –
8790 kPa, x1 = 0.1495 | 1008 | –
8840 kPa, x1 = 0.0461 | 808 | –
8860 kPa, x1 = 0.0245 | 720 | –
8930 kPa, x1 = 0.0683 | 851 | –
9010 kPa, x1 = 0.0245 | 729 | –
9030 kPa, x1 = 0.0989 | 907 | –
9040 kPa, x1 = 0.0461 | 814 | –
9110 kPa, x1 = 0.0683 | 854 | –
9180 kPa, x1 = 0.0245 | 738 | –
9240 kPa, x1 = 0.0461 | 820 | –
9260 kPa, x1 = 0.0683 | 858 | –
9380 kPa, x1 = 0.0245 | 748 | –
9440 kPa, x1 = 0.0683 | 861 | –
9470 kPa, x1 = 0.0461 | 826 | –
9480 kPa, x1 = 0.0989 | 913 | –
9540 kPa, x1 = 0.1495 | 1015 | –
9580 kPa, x1 = 0.0683 | 864 | –
9600 kPa, x1 = 0.0245 | 758 | –
9710 kPa, x1 = 0.0461 | 833 | –
9790 kPa, x1 = 0.0683 | 868 | –
9850 kPa, x1 = 0.0245 | 767 | –
9950 kPa, x1 = 0.1495 | 1018 | –
9990 kPa, x1 = 0.0461 | 840 | –
10020 kPa, x1 = 0.0989 | 920 | –
10150 kPa, x1 = 0.0245 | 778 | –
10330 kPa, x1 = 0.1495 | 1022 | –
10450 kPa, x1 = 0.0245 | 788 | –
10600 kPa, x1 = 0.0989 | 927 | –
10770 kPa, x1 = 0.1495 | 1026 | –
10840 kPa, x1 = 0.0245 | 799 | –
11180 kPa, x1 = 0.0989 | 933 | –
11240 kPa, x1 = 0.1495 | 1030 | –
11280 kPa, x1 = 0.0245 | 810 | –
11690 kPa, x1 = 0.1495 | 1033 | –
11760 kPa, x1 = 0.0245 | 821 | –
11850 kPa, x1 = 0.0989 | 941 | –
12120 kPa, x1 = 0.1495 | 1036 | –
12160 kPa, x1 = 0.0989 | 944 | –
12320 kPa, x1 = 0.0245 | 833 | –
12560 kPa, x1 = 0.0989 | 948 | –
12600 kPa, x1 = 0.1495 | 1040 | –
12960 kPa, x1 = 0.0245 | 845 | –
13090 kPa, x1 = 0.1495 | 1044 | –
13640 kPa, x1 = 0.1495 | 1047 | –
13700 kPa, x1 = 0.0245 | 857 | –
14170 kPa, x1 = 0.1495 | 1051 | –
14530 kPa, x1 = 0.0245 | 870 | –
14740 kPa, x1 = 0.1495 | 1056 | –
14980 kPa, x1 = 0.0245 | 876 | –
15070 kPa, x1 = 0.1495 | 1058 | –
15150 kPa, x1 = 0.0245 | 879 | –
15320 kPa, x1 = 0.1495 | 1060 | –
